Values of other authors in US20250302774A1, “LISDEX[…] OROD[…] AND PROCESS FOR PREPARATION THEREOF” (ATHENA PHARM[…], priority 2024, published 2025).
Read-outs that look alike come from different tables or passages of the source.

Columns and labels:
[1] = active substance, exposed to moisture, dimethanesulfonate

## CS(=O)(=O)O.CS(=O)(=O)O.C[C@@H](Cc1ccccc1)NC(=O)[C@@H](N)CCCCN [Lisdexamfetamine dimesylate, (2S)-2,6-diamino-N-[(1S)-1-methyl-2-phenylethyl]-hexanamide, dimethanesulfonate]
[1]
  hygroscopic / deliquescent nature: highly deliquescent
[1]; listed as lisdexamfetamine dimesylate
  hygroscopic / deliquescent nature: hygroscopic
In acetone
  solubility: very slightly soluble
In chloroform
  solubility: very slightly soluble
In ethanol
  solubility: soluble
In methanol
  solubility: freely soluble
In tetrahydrofuran
  solubility: practically insoluble
In toluene
  solubility: very slightly soluble
